Experiments:
[1] = tested on: MV4-11; assay: WT Cell Cytotoxicity (CellTiter-Glo); conditions: MV4-11 and HL-60
[2] = WT Cell Cytotoxicity (CellTiter-Glo); conditions: human, MV4-11 cells (BET-dependent AML cell line)
[3] = biological target: kappa (KOP) (Rattus norvegicus, UniProt P34975); assay: CEREP ExpresSProfile; conditions: read-out: Mean % of control specific binding (±SD)
Source text: (§1) Receptor Reference Compound Mean % of control specific
Receptor & Ion-Channel Screening
CEREP ExpresSProfile panel

[4] = tested on: Cl- channel (GABA-gated); assay: CEREP ExpresSProfile; assay type: binding; conditions: 1 µM
[5] = biological target: BRD2 BD2 L/V (Homo sapiens, UniProt P25440, L383V); assay: ITC; assay type: binding
Chain of BRD2 BD2 L/V (P25440 344-455 L383V): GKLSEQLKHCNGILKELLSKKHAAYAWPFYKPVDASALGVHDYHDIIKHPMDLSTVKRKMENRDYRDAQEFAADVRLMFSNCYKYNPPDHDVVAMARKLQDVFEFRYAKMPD

[6] = biological target: BRD2 BD1 L/V (Homo sapiens, UniProt P25440, L110V); assay: ITC; assay type: binding
Chain of BRD2 BD1 L/V (P25440 71-176 L110V limits assumed): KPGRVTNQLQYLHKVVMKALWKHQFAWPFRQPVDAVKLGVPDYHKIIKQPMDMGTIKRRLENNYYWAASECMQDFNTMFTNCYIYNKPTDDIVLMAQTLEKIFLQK

[7] = biological target: EP4 (h) (Homo sapiens, UniProt P35408); assay: CEREP ExpresSProfile; conditions: read-out: Mean % of control specific binding (±SD)
Chain of EP4 (h) (P35408 whole entry): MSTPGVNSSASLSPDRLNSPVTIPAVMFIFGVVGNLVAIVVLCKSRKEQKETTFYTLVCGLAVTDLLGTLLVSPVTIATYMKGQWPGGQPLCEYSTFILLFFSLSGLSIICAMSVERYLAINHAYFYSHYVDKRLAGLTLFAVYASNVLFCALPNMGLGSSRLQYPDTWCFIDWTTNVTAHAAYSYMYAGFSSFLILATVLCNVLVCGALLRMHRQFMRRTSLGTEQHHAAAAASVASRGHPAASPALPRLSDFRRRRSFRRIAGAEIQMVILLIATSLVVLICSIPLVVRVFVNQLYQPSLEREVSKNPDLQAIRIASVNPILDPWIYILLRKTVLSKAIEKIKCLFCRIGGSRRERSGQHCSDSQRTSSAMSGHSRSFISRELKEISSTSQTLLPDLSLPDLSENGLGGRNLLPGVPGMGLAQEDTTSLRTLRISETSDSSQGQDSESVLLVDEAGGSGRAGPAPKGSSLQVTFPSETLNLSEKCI

[8] = biological target: beta 2 (h) (Homo sapiens, UniProt P07550); assay: CEREP ExpresSProfile; conditions: read-out: Mean % of control specific binding (±SD)
[9] = biological target: T1, BRD4 BD2 WT (Homo sapiens, UniProt O60885); assay: ITC; assay type: binding
[10] = tested on: GABA (non-selective); assay: CEREP ExpresSProfile; assay type: binding; conditions: 1 µM
[11] = biological target: T2, BRD4 BD1 L/V (Homo sapiens, UniProt O60885, L94V); assay: competitive AlphaLISA; assay type: binding; conditions: for ΔpIC50 BRD4 BD1: L/V minus WT
[12] = biological target: BRD3 BD2 WT (Homo sapiens, UniProt Q15059); assay: ITC; assay type: binding
Chain of BRD3 BD2 WT (Q15059 306-416): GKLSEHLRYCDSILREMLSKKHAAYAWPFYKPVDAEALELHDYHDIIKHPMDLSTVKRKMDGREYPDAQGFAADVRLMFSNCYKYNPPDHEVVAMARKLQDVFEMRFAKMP

[13] = biological target: 5-HT1A (h) (Homo sapiens, UniProt P08908); assay: CEREP ExpresSProfile; conditions: read-out: Mean % of control specific binding (±SD)
Chain of 5-HT1A (h) (P08908 whole entry): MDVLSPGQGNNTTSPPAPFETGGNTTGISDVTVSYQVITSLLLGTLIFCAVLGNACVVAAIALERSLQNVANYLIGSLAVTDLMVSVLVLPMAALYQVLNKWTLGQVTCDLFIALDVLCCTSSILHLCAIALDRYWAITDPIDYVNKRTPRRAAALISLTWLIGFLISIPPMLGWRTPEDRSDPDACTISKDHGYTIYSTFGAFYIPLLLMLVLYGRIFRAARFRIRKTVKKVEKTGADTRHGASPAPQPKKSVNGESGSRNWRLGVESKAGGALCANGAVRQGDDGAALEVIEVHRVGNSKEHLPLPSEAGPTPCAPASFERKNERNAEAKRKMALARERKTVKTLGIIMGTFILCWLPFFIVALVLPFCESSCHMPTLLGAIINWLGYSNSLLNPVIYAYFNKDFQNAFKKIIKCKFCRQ

[14] = biological target: T3, BRD2 BD1 WT (Homo sapiens, UniProt P25440); assay: ITC; assay type: binding
T3 sequence (P25440 71-176): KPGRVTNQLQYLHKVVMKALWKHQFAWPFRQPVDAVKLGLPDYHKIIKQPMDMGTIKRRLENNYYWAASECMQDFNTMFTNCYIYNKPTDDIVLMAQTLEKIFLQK

[15] = biological target: BRD3 BD1 WT (Homo sapiens, UniProt Q15059); assay: ITC; assay type: binding
Chain of BRD3 BD1 WT (Q15059 24-144): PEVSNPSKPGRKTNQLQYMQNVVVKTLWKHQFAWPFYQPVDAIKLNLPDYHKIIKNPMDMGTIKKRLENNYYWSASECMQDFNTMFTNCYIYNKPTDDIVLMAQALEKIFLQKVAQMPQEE

[16] = biological target: BRD3 BD2 L/V (Homo sapiens, UniProt Q15059, L345V); assay: ITC; assay type: binding
Chain of BRD3 BD2 L/V (Q15059 306-416 L345V limits assumed): as the sequence (Q15059 306-416) above, with L40V counted along it

[17] = biological target: T4, BRD3 BD1 L/V (Homo sapiens, UniProt Q15059, L70V); assay: ITC; assay type: binding
T4 sequence (Q15059 24-144 L70V limits assumed): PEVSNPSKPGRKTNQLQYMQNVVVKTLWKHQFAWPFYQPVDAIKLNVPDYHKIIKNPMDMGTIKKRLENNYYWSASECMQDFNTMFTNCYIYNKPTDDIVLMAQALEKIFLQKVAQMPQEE

[18] = biological target: A3 (h) (Homo sapiens, UniProt P0DMS8); assay: CEREP ExpresSProfile; conditions: read-out: Mean % of control specific binding (±SD)
Chain of A3 (h) (P0DMS8 whole entry): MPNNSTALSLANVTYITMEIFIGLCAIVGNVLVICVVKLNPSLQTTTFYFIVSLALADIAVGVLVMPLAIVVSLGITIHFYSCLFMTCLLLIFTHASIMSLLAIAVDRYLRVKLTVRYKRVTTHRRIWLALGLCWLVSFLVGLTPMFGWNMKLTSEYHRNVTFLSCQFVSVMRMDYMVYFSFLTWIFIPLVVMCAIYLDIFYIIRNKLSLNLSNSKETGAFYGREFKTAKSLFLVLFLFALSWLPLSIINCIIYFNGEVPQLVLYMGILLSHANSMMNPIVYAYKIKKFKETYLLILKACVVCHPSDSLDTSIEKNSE
Source text: as §1
Receptor & Ion-Channel Screening
CEREP ExpresSProfile panel

[19] = biological target: T5, BRD4 BD1 WT (Homo sapiens, UniProt O60885); assay: competitive AlphaLISA; assay type: binding
[20] = biological target: T6, BRD2 BD2 WT (Homo sapiens, UniProt P25440); assay: ITC; assay type: binding
T6 sequence (P25440 344-455): as the sequence (P25440 344-455 L383V) above, with V40L counted along it

[21] = biological target: mu (MOP) (h) (Homo sapiens, UniProt P35372); assay: CEREP ExpresSProfile; conditions: read-out: Mean % of control specific binding (±SD)
Chain of mu (MOP) (h) (P35372 whole entry): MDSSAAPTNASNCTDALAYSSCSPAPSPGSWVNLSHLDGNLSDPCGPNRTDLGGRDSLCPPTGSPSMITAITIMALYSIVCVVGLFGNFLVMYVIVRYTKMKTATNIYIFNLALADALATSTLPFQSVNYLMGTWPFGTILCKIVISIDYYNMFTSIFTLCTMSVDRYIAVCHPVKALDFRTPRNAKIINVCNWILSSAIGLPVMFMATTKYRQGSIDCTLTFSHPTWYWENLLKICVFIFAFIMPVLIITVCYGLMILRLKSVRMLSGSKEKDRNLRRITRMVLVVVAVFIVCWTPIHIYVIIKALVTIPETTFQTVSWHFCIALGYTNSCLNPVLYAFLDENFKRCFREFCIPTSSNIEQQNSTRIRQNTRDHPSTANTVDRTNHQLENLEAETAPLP

[22] = biological target: 5-HT6 (h) (Homo sapiens, UniProt P50406); assay: CEREP ExpresSProfile; conditions: read-out: Mean % of control specific binding (±SD)
Chain of 5-HT6 (h) (P50406 whole entry): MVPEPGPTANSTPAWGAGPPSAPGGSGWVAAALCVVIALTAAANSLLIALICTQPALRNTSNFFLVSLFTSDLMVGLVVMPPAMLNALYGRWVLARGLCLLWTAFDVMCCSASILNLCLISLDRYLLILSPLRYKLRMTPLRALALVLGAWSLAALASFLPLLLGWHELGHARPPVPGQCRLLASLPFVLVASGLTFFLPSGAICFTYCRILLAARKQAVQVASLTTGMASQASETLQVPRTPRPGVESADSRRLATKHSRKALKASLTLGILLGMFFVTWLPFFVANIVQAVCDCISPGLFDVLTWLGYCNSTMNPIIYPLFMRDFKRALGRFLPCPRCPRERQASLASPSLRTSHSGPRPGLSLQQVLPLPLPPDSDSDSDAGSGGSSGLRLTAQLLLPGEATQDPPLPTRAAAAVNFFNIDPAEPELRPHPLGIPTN

[23] = biological target: V1a (h) (Homo sapiens, UniProt P37288); assay: CEREP ExpresSProfile; conditions: read-out: Mean % of control specific binding (±SD)
[24] = tested on: Na+ channel (site 2); assay: CEREP ExpresSProfile; assay type: binding; conditions: 1 µM
[25] = biological target: T5, BRD4 BD1 WT; assay: ITC; assay type: binding
[26] = biological target: dopamine transporter (h) (Homo sapiens, UniProt Q01959); assay: CEREP ExpresSProfile; conditions: read-out: Mean % of control specific binding (±SD)
Chain of dopamine transporter (h) (Q01959 whole entry): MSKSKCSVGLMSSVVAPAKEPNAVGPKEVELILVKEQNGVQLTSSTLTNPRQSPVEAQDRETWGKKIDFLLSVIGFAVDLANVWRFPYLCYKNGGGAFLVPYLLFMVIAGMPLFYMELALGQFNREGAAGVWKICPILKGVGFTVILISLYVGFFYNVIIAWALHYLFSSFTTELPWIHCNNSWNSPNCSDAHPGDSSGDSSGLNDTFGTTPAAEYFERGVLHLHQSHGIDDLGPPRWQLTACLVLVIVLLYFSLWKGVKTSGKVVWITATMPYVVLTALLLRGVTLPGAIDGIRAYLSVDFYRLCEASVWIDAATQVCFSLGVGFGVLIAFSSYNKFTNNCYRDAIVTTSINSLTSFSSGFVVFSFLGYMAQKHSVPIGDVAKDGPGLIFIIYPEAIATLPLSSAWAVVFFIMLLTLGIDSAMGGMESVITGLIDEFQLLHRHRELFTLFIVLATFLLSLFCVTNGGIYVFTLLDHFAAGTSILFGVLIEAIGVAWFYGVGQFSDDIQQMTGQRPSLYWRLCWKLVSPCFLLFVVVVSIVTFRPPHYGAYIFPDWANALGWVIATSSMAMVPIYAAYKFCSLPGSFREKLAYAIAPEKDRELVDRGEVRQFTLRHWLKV
Source text: as §1
Receptor & Ion-Channel Screening
CEREP ExpresSProfile panel

[27] = biological target: CB1 (h) (Homo sapiens, UniProt P21554); assay: CEREP ExpresSProfile; conditions: read-out: Mean % of control specific binding (±SD)
Chain of CB1 (h) (P21554 whole entry): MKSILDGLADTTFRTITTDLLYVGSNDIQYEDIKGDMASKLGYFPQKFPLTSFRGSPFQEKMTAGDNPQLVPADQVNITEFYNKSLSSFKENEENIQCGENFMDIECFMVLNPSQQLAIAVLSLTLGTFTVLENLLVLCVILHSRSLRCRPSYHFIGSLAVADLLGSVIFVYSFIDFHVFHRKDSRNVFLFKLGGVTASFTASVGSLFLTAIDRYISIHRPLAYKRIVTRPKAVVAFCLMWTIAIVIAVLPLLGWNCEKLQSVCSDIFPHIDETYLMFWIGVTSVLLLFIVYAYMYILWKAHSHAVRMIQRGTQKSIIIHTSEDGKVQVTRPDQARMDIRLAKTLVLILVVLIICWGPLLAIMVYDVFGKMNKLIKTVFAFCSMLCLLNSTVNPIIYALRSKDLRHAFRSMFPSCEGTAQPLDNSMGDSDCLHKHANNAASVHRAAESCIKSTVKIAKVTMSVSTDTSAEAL
Source text: as §1
Receptor & Ion-Channel Screening
CEREP ExpresSProfile panel

[28] = biological target: 5-HT7 (h) (Homo sapiens, UniProt P34969); assay: CEREP ExpresSProfile; conditions: read-out: Mean % of control specific binding (±SD)
Chain of 5-HT7 (h) (P34969 whole entry): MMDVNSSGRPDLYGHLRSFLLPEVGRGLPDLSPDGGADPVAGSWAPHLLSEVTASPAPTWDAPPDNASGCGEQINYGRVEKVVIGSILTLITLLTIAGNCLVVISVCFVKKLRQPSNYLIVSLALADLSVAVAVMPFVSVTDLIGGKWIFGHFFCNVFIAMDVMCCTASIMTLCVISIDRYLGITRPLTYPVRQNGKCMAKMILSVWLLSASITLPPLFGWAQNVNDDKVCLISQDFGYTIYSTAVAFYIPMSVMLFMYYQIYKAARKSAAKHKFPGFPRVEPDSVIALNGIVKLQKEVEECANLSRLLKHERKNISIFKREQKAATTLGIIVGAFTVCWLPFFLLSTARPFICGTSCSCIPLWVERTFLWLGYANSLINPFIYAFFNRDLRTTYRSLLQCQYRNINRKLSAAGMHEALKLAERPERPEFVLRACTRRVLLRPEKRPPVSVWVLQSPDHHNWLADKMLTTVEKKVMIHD

[29] = biological target: T7, BRD4 BD2 L/V (Homo sapiens, UniProt O60885, L387V); assay: ITC; assay type: binding
[30] = biological target: T2, BRD4 BD1 L/V; assay: ITC; assay type: binding; conditions: for Kd: Kd BRD4 BD1 L/V
[31] = tested on: L/V somatic BET bromodomains; assay: ITC
[32] = biological target: T4, BRD3 BD1 L/V; assay: competitive AlphaLISA; assay type: binding
[33] = biological target: T6, BRD2 BD2 WT; assay: competitive AlphaLISA; assay type: binding
[34] = in vitro; conditions: PAMPA, pH 7.4
[35] = biological target: T1, BRD4 BD2 WT; assay: competitive AlphaLISA; assay type: binding
[36] = biological target: T7, BRD4 BD2 L/V; assay: competitive AlphaLISA; assay type: binding
[37] = biological target: T3, BRD2 BD1 WT; assay: competitive AlphaLISA; assay type: binding
[38] = pIC50 BRD4 BD1 L/V, separated enantiomers test, total compound concentration
[39] = pIC50 BRD4 BD1 WT, separated enantiomers test, total compound concentration
[40] = ITC, total compound concentration
[41] = ITC of separated enantiomers and racemates, total compound concentration

Chain of kappa (KOP) (P34975 whole entry): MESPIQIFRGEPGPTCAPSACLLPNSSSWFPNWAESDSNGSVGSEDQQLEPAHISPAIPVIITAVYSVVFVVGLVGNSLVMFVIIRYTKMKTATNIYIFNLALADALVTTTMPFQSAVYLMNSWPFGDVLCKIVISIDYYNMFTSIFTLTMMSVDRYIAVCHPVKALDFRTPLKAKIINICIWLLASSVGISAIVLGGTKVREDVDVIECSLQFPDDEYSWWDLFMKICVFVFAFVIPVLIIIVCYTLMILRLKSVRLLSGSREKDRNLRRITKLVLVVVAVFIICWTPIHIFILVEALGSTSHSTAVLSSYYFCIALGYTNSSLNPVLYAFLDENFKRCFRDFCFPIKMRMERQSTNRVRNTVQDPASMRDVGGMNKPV

For `COC(=O)[C@H](C)[C@@H]1N=C(c2ccc(Cl)cc2)c2ccc(OC)cc2-n2c(C)nnc21` [(2R,3S)-7], the cytotoxicity [1] was “no cytotoxicity below 1 μM”, the CC50 at 48 h [2] was 2510 nM and the remaining activity at 1 µM [3] was 96%. The “Mean % of control specific binding (±SD)” value [4] was 98 (4) %, the Kd [5] was 200 nM and the Kd [6] was 210 nM. The remaining activity at 1 µM [7] was 93%, the remaining activity at 1 µM [8] was 105% and the Kd [9] was 29000 nM. For the same compound, the “Mean % of control specific binding (±SD)” value [10] was 110 (1) %, the “ΔpIC50 BRD4 BD1” value ([11]; total compound concentration) was 1.7 and the IC50 [11, 38] was 158 nM. The Kd [12] was 24000 nM, the remaining activity at 1 µM [13] was 104% and the Kd [14] was 43000 nM. The Kd [15] was 7500 nM, the Kd [16] was 310 nM and the Kd [17] was 90 nM. For the same compound, the remaining activity at 1 µM [18] was 91%, the IC50 [19, 39] was 7940 nM and the Kd [20] was over 60000 nM. The remaining activity at 1 µM [21] was 119%, the remaining activity at 1 µM [22] was 112% and the remaining activity at 1 µM [23] was 102%. For the same compound, the “Mean % of control specific binding (±SD)” value [24] was 105 (6) %, the Kd [25] was 58000 ± 4000 nM and the “ΔH BRD4 BD1 WT” value [25, 40] was -13.3 ± 0.5 kcal/mol. For the same compound, the remaining activity at 1 µM [26] was 84%, the remaining activity at 1 µM [27] was 90% and the remaining activity at 1 µM [28] was 106%. The Kd [29] was 300 nM, the “ΔH BRD4 BD1 L/V” value [30, 40] was -7.9 ± 0.1 kcal/mol and the Kd [30, 41] was 170 ± 20 nM. It also gave a potency ([31]; L/V BET bromodomains) of about 200 nM.
With `CC[C@@H](C(=O)OC)[C@@H]1N=C(c2ccc(Cl)cc2)c2ccc(OC)cc2-n2c(C)nnc21` (racemic) [Compound 8] the Kd [5] was 300 nM, the “selectivity plot WT 2.1 vs L/V 2.2” value ([5]; Kd BRD2 BD1 WT / Kd BRD2 BD2 L/V) was over 200 and the “selectivity plot WT 2.2 vs L/V 2.2” value ([5]; Kd BRD2 BD2 WT / Kd BRD2 BD2 L/V) was over 200. The “selectivity plot WT 3.1 vs L/V 2.2” value ([5]; Kd BRD3 BD1 WT / Kd BRD2 BD2 L/V) was 100, the “selectivity plot WT 3.2 vs L/V 2.2” value ([5]; Kd BRD3 BD2 WT / Kd BRD2 BD2 L/V) was over 200 and the “selectivity plot WT 4.1 vs L/V 2.2” value ([5]; Kd BRD4 BD1 WT / Kd BRD2 BD2 L/V) was over 200. The “selectivity plot WT 4.2 vs L/V 2.2” value ([5]; Kd BRD4 BD2 WT / Kd BRD2 BD2 L/V) was over 200, the Kd [6] was 340 nM and the “selectivity plot WT 2.1 vs L/V 2.1” value ([6]; Kd BRD2 BD1 WT / Kd BRD2 BD1 L/V) was over 180. The “selectivity plot WT 2.2 vs L/V 2.1” value ([6]; Kd BRD2 BD2 WT / Kd BRD2 BD1 L/V) was over 180, the “selectivity plot WT 3.1 vs L/V 2.1” value ([6]; Kd BRD3 BD1 WT / Kd BRD2 BD1 L/V) was 90 and the “selectivity plot WT 3.2 vs L/V 2.1” value ([6]; Kd BRD3 BD2 WT / Kd BRD2 BD1 L/V) was over 180. The “selectivity plot WT 4.1 vs L/V 2.1” value ([6]; Kd BRD4 BD1 WT / Kd BRD2 BD1 L/V) was over 180, the “selectivity plot WT 4.2 vs L/V 2.1” value ([6]; Kd BRD4 BD2 WT / Kd BRD2 BD1 L/V) was over 180 and the IC50 [32] was 126 nM. The Kd [9] was over 60000 nM, the IC50 ([11]; AlphaLISA pIC50 Value BRD4 BD1 L/V) was 126 nM and the “ΔpIC50 BRD4 BD1” value ([11]; total compound concentration) was 1.4. For the same compound, the IC50 [11, 38] was 2000 nM, the Kd [12] was over 60000 nM and the Kd [14] was over 60000 nM. It also gave a Kd [15] of 29000 nM, an IC50 [33] of 3980 nM and a Kd [16] of 410 nM. For the same compound, the “selectivity plot WT 2.1 vs L/V 3.2” value ([16]; Kd BRD2 BD1 WT / Kd BRD3 BD2 L/V) was over 150, the “selectivity plot WT 2.2 vs L/V 3.2” value ([16]; Kd BRD2 BD2 WT / Kd BRD3 BD2 L/V) was over 150 and the “selectivity plot WT 3.1 vs L/V 3.2” value ([16]; Kd BRD3 BD1 WT / Kd BRD3 BD2 L/V) was 70. The “selectivity plot WT 3.2 vs L/V 3.2” value ([16]; Kd BRD3 BD2 WT / Kd BRD3 BD2 L/V) was over 150, the “selectivity plot WT 4.1 vs L/V 3.2” value ([16]; Kd BRD4 BD1 WT / Kd BRD3 BD2 L/V) was over 150 and the “selectivity plot WT 4.2 vs L/V 3.2” value ([16]; Kd BRD4 BD2 WT / Kd BRD3 BD2 L/V) was over 150. For the same compound, the Kd [17] was 270 nM, the “selectivity plot WT 2.1 vs L/V 3.1” value ([17]; Kd BRD2 BD1 WT / Kd BRD3 BD1 L/V) was over 230 and the “selectivity plot WT 2.2 vs L/V 3.1” value ([17]; Kd BRD2 BD2 WT / Kd BRD3 BD1 L/V) was over 230. For the same compound, the “selectivity plot WT 3.1 vs L/V 3.1” value ([17]; Kd BRD3 BD1 WT / Kd BRD3 BD1 L/V) was 110, the “selectivity plot WT 3.2 vs L/V 3.1” value ([17]; Kd BRD3 BD2 WT / Kd BRD3 BD1 L/V) was over 230 and the “selectivity plot WT 4.1 vs L/V 3.1” value ([17]; Kd BRD4 BD1 WT / Kd BRD3 BD1 L/V) was over 230. The “selectivity plot WT 4.2 vs L/V 3.1” value ([17]; Kd BRD4 BD2 WT / Kd BRD3 BD1 L/V) was over 230, the Papp [34] was 15.5 ×10⁻⁶ cm/s and the IC50 ([19]; AlphaLISA pIC50 Value BRD4 BD1 WT) was 1580 nM. It also gave an IC50 [19, 39] of 50100 nM, an IC50 [35] of 3160 nM and a Kd [20] of over 60000 nM. For the same compound, the IC50 [36] was 200 nM, the Kd [25] was over 60000 nM and the Kd [29] was 740 nM. For the same compound, the “selectivity plot WT 2.1 vs L/V 4.2” value ([29]; Kd BRD2 BD1 WT / Kd BRD4 BD2 L/V) was over 80, the “selectivity plot WT 2.2 vs L/V 4.2” value ([29]; Kd BRD2 BD2 WT / Kd BRD4 BD2 L/V) was over 80 and the “selectivity plot WT 3.1 vs L/V 4.2” value ([29]; Kd BRD3 BD1 WT / Kd BRD4 BD2 L/V) was 40. For the same compound, the “selectivity plot WT 3.2 vs L/V 4.2” value ([29]; Kd BRD3 BD2 WT / Kd BRD4 BD2 L/V) was over 80, the “selectivity plot WT 4.1 vs L/V 4.2” value ([29]; Kd BRD4 BD1 WT / Kd BRD4 BD2 L/V) was over 80 and the “selectivity plot WT 4.2 vs L/V 4.2” value ([29]; Kd BRD4 BD2 WT / Kd BRD4 BD2 L/V) was over 80. The “N BRD4 BD1 L/V” value ([30]; ITC stoichiometry, total compound concentration) was 1.42 ±0.02, the “ΔH BRD4 BD1 L/V” value [30, 40] was -3.5 ± 0.1 kcal/mol and the “selectivity plot WT 2.1 vs L/V 4.1” value ([30]; Kd BRD2 BD1 WT / Kd BRD4 BD1 L/V) was over 110. The “selectivity plot WT 2.2 vs L/V 4.1” value ([30]; Kd BRD2 BD2 WT / Kd BRD4 BD1 L/V) was over 100, the “selectivity plot WT 3.1 vs L/V 4.1” value ([30]; Kd BRD3 BD1 WT / Kd BRD4 BD1 L/V) was 60 and the “selectivity plot WT 3.2 vs L/V 4.1” value ([30]; Kd BRD3 BD2 WT / Kd BRD4 BD1 L/V) was over 110. For the same compound, the Kd [30, 41] was 840 ± 170 nM, the Kd ([30]; ITC, 30°C) was 530 nM and the “selectivity plot WT 4.1 vs L/V 4.1” value ([30]; Kd BRD4 BD1 WT / Kd BRD4 BD1 L/V) was over 100. The “selectivity plot WT 4.2 vs L/V 4.1” value ([30]; Kd BRD4 BD2 WT / Kd BRD4 BD1 L/V) was over 100, the “ITC pKd ± SD Δ” value ([31]; L/V minus WT) was over 2.2 ± 0.2 and the “selectivity for the L/V mutant over wild-type” value ([31]; across the BET subfamily, ITC) was over 100 fold. The “ITC pKd ± SD L/V” value ([31]; mean and SD of all somatic bromodomains) was 6.4 ± 0.2 and the IC50 [37] was 10000 nM.
